Laboratory results as given in US8552053B2, “7-substituted indirubin-3′oximes and their applications” (Centre National de la Recherche Scientifique, priority 2005, dated 2013).
Like-named read-outs stand apart in the source and are kept apart here.

Legend:
MDA-MB-231 cells = test: MDA-MB-231 cell proliferation and cell cycle distribution; format: cell-based, human
Experimental: MDA-MB-231 cells (derived from hormone-independent breast cancer) were cultured in DMEM supplemented with 10% FCS. For experiments, these cells were seeded in 24-well boxes or in 35 mm Petri dishes at appropriate densities (4.10^4 cells per well for cell growth experiments; 10^5 cells per dish for cell cycle analysis) and exposed to indirubins as indicated.

SH-SY5Y cells [1] = test: SH-SY5Y cell survival, MTS reduction assay; format: cell-based, human
[2] = tested on: SH-SY5Y cells transfected with pcDNA3/Bcl-2 or pcDNA3/Bcl-XL; test: Viability of Bcl-2 / Bcl-XL overexpressing SH-SY5Y cells, MTS; format: cell-based, human; conditions: 7BIO 25 μM, STS 2 μM; 9 and 24 h
cytochome C release = test: Cytochrome C release from mitochondria; conditions: 12.5 μM, 10 h
[3] = tested on: wild-type HCT-116 and HCT-116 sub-clones deprived of p53; test: Survival of wild-type and p53-deprived HCT-116 cells, MTS; format: cell-based, human; conditions: 24 h
Experimental: Average±s.e. of three determinations. HCT116 human adenocarcinoma cell line were obtained from Dr. Vogelstein (The Howard Hughes Medical Institute, Sidney Kimmel Comprehensive Cancer Center, The Johns Hopkins School of Medicine, Baltimore, Md. 21231, USA). HCT116 cells were cultured in McCoy's 5A (Biowhittaker) supplemented with antibiotics and 10% FCS. General culture conditions were an atmosphere of 5% CO2 and a temperature of 37° C. Culture dishes and other plastic disposable tools were supplied by Corning (Corning, N.Y., USA). Indirubin treatments were performed on exponentially growing cultures at the indicated time and concentrations. Control experiments were carried also using appropriate dilutions of DMSO.

[4] = tested on: IMR-5, IMR-32, HL-60 and Jurkat cells; test: Viability of IMR-5, IMR-32, HL-60 and Jurkat cells, MTS; format: cell-based, human; conditions: 24 h
Experimental: FIG. 15. […] Every point is the mean±s.e. of three independent experiments with six independent measurements per experiment. […] SH-SY5Y, IMR-5 and IMR-32 human neuroblastoma cell lines were grown in DMEM medium from (Biowhittaker) plus 2 mM L-glutamine from Eurobio (Courtaboeuf, France) or DMEM already supplemented with 2 mM L-glutamine (Invitrogen, Barcelona, Spain), plus antibiotics and a 10% volume of FCS (Invitrogen, Cergy Pontoise, France or Barcelona, Spain). SH-SY5Y cell lines permanently transfected with pcDNA3/Bcl-2, pcDNA3/Bcl-XL and empty pcDNA3 vectors were grown like their untransfected counterparts. However, Geneticin (G-418) selection was maintained in the growing cultures before the terminal experiments (Ribas and Boix, 2004). […] HL-60 and Jurkat cells were grown in RPMI 1640 medium with 10% FCS and antibiotics from Invitrogen (Barcelona, Spain).

[5] = tested on: effector caspases (DEVDase activity); test: Effector caspase activation in IMR-5, IMR-32, HL-60 and Jurkat cells; format: cell-based, human; conditions: 25 μM, 24 h
Experimental: FIG. 15. […] Every point is the mean±s.e. of three independent experiments with six independent measurements per experiment. […] Bar value is the mean±s.e. of 6 independent determinations.
(§1) The measurement of caspase activity is based on determining the fluorescence released from the AcDEVDafc synthetic substrate after its direct addition to the culture medium, detergent lysis, and incubation at 37°. This method is devised to be applied to 96 multiwell plates. It allows kinetic determinations of caspase activation and the characterization of multiple drugs simultaneously. (Ribas et al., 2005).

SH-SY5Y cells [6] = test: SH-SY5Y cell survival, MTS reduction assay; format: cell-based, human; remark: listed apart in the source
Experimental: SH-SY5Y, IMR-5 and IMR-32 human neuroblastoma cell lines were grown in DMEM medium from (Biowhittaker) plus 2 mM L-glutamine from Eurobio (Courtaboeuf, France) or DMEM already supplemented with 2 mM L-glutamine (Invitrogen, Barcelona, Spain), plus antibiotics and a 10% volume of FCS (Invitrogen, Cergy Pontoise, France or Barcelona, Spain). SH-SY5Y cell lines permanently transfected with pcDNA3/Bcl-2, pcDNA3/Bcl-XL and empty pcDNA3 vectors were grown like their untransfected counterparts. However, Geneticin (G-418) selection was maintained in the growing cultures before the terminal experiments (Ribas and Boix, 2004). In order to induce differentiation, SH-SY5Y cells were cultured on collagen coated plates and treated with 10 μM RA for five days.
(§2) Cell death characterization based on nuclear morphology was assessed by double staining with 0.05 μg/ml bisBenzimide and 25 μg/ml propidium iodide. Cell viability was determined by means of the MTS method. Both procedures have been previously described in detail (Ribas and Boix, 2004). For evaluation of DNA laddering, cell DNA was extracted and electrophoresed in 1.5% agarose gels to evidence the internucleosomal fragmentation typical of apoptosis.
The effects of each indirubin was tested, at a 25 μM final concentration, on the survival of the neuroblastoma SH-SY5Y cell line after 24 h or 48 h exposure.

[7] = tested on: effector caspase activity (DEVDase); test: Caspase (DEVDase) assay in SH-SY5Y cells; format: cell-based, human; conditions: 24 h dose-response; time course at 25 μM
Experimental: The value of control untreated cells is placed at time 0. DEVDase activity was measured as arbitrary fluorescence units. Every point is the mean±s.e. of at least three independent determinations. (B). […] Every point is the mean±s.e. of at least three independent determinations.
as §1

[8] = tested on: 5 L (AhR+/+) and BP8 (AhR−/−) cells; conditions: 24 h
CDK5/p25 = CDK5/p25 (Homo sapiens, UniProt Q00535); test: CDK5/p25 kinase assay; format: biochemical, mammalian
[9] = tested on: SH-SY5Y cells differentiated by retinoic acid; test: Viability of RA-differentiated versus proliferating SH-SY5Y cells, MTS; format: cell-based, human; conditions: 24 h; 7BIO 25 μM, STS 1 μM
[10] = tested on: 5 L (AhR+/+) and BP8 (AhR−/−) cells; test: Cell cycle distribution of 5 L and BP8 cells (FACS); format: cell-based, mouse; conditions: 10 μM, 24 h
SH-SY5Y cells [11] = test: DNA laddering (internucleosomal fragmentation); format: cell-based, human; conditions: 25 μM, 24 h
Experimental: as §2

p21^Cip1 = test: p21Cip1 expression, Western blotting; conditions: SH-SY5Y cells, 12.5 μM, 12 h
SH-SY5Y cells [12] = test: Nuclear morphology, bisBenzimide and propidium iodide staining; format: cell-based, human; conditions: 24 h; 10 or 25 μM
Experimental: Following double staining of DNA with BisBenzimide and propidium iodide, cells were examined by fluorescence microscopy. Thick arrows: apoptosis (nuclear fragmentation); thin arrows: secondary necrosis; arrow heads: pycnotic nuclei. Scale bar: 20 μm. Cell death characterization based on nuclear morphology was assessed by double staining with 0.05 μg/ml bisBenzimide and 25 μg/ml propidium iodide. Cell viability was determined by means of the MTS method. Both procedures have been previously described in detail (Ribas and Boix, 2004).

p53 = p53 expression, Western blotting; conditions: SH-SY5Y cells, 12.5 μM
[13] = tested on: AhR-dependent expression of p27^Kip1; test: p27Kip1 expression in 5 L and BP8 hepatoma cells (Western blotting); format: cell-based, mouse; conditions: 10 μM, 24 h
Experimental: Actin Western blotting was used as a loading control. […] Average±s.e. of three determinations. […] Karlsruhe, Institute of Genetics, 76021 Karlsruhe, Germany). […] 6.8, 1 mM EDTA, 2% SDS.

SH-SY5Y cells [14] = test: SH-SY5Y cell death, LDH release assay; format: cell-based, human; conditions: IO, 5BIO, 6BIO, 7BIO compared (FIG. 3B)
Experimental: In addition, cell death was estimated 48 h after the addition of each indirubin (25 μM) using the LDH release assay. As MTS reduction is occasionally observed under conditions different from cell death, an independent cell death evaluation procedure was used, the lactate dehydrogenase (LDH) release assay. This assay confirmed the induction of cell death by the indirubins of the invention, despite their overall lack of effects on CDKs and GSK-3.

Sequence of CDK5/p25 (Q00535 whole entry, species assumed): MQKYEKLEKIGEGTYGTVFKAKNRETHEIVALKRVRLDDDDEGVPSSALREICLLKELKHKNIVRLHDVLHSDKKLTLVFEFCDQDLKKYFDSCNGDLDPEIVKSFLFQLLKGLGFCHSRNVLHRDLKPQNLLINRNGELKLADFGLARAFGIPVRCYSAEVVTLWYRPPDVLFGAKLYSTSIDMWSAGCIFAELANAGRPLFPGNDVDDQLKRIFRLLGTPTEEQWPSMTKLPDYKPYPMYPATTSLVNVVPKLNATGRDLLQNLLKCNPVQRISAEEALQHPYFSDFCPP
Sequence of CDK5/p25 (Q15078 99-307 partner limits assumed, species assumed): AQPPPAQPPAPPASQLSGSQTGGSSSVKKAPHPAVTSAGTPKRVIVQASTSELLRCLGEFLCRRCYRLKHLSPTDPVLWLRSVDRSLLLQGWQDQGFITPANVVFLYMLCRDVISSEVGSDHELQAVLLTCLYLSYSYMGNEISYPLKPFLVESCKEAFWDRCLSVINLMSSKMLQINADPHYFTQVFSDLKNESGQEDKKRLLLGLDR

(2′Z,3′E)-7-bromoindirubin-3′-oxime [7BIO]
cell cycle distribution (MDA-MB-231 cells; 24 h, FACS): accumulation in G2/M and reduction of G0/G1
cell proliferation by direct counting (MDA-MB-231 cells; 48 h exposure): dose-dependent inhibition of cell proliferation
reversibility of the effect by removal of compound (MDA-MB-231 cells; medium replaced at 48 h): poorly if at all reversible
sensitivity of cell death to the presence of the caspase inhibitor Q-VD-OPh (SH-SY5Y cells [1]; 20 μM Q-VD-OPh, MTS 43 h after addition (Table 5)): completely insensitive
concentration required to reduce cell survival (MTS reduction) (SH-SY5Y cells [1]; 48 h, IO, 5BIO, 6BIO, 7BIO compared (FIG. 3A)): most potent compound
protection by Bcl-2 / Bcl-XL overexpression [2]: neither Bcl-XL nor Bcl-2 overexpression provided any significant protection
release of cytochome C from mitochondria (cytochome C release): negligible release
dose-response curves, wild-type versus p53-deprived HCT-116 [3]: essentially the same
induction of cell death [4]: induced cell death in the same range of concentrations
effector caspase activation (DEVDase activity) [5]: fell consistently below the background
time required to induce 70% cell death (SH-SY5Y cells [6]; 25 μM (FIG. 7)): ≤ 12 h
time to almost complete cell death (SH-SY5Y cells [6]; 25 μM (FIG. 7)): ≤ 24 h
effect of Q-VD-Oph on induced cell death (SH-SY5Y cells [6]; 25 μM indirubin, 48 h, 10 μM Q-VD-OPh (FIG. 10)): no effect
cell death inducing activity, position 7 halogen / N1-methyl series (MTS) (SH-SY5Y cells [6]; 48 h (FIG. 4)): equipotent
activation of caspase activity [7]: remained at the level of control
dose-response curves of cell death in 5 L versus BP8 [8]: essentially the same
inhibitory activity on CDK5/p25 (in words) (CDK5/p25): marginal inhibitory activity
inhibitory activity on CDK5/p25 (in words) (CDK5/p25; listed as 24): weak and gradually decreasing inhibitory activity
effect of cell differentiation on induced cell death [9]: negligible effect
cell cycle distribution of AhR−/− and AhR+/+ cells [10]: striking AhR-dependent accumulation in G0/G1
DNA laddering (SH-SY5Y cells [11]): no ladder was observed
induction of p21^Cip1 overexpression (p21^Cip1): negligible effects
nuclear morphology / PI staining (SH-SY5Y cells [12]): numerous large, unfragmented pycnotic nuclei
induction of p53 (p53): insignificant
AhR-dependent expression of p27^Kip1 [13]: potently enhance
cell death (LDH release) (SH-SY5Y cells [14]): most potent compound
